Data as given in publication PMC10178204, “Peptaibol Analogs Show Potent Antibacterial Activity against Multidrug Resistant Opportunistic Pathogens” (International Journal of Molecular Sciences, 2023).
In brackets after ≈: the same amount, converted by molar mass. Several values for one entry are separate records, joined by “and”; a condition that tells them apart may be missing. Equal values may be shown once. Non-standard residues stand in square brackets, D forms with d. Residues, ends and D or L forms follow the SMILES beside them. *: point of attachment. Leu(ol) = CC(C)C[C@H](N)CO; Octanoyl = CCCCCCCC(=O)*; Aib = CC(C)(N)C(=O)O

Tests used:
[1] = system: blood agar plate (Columbia CNA Agar); assay: Hemolysis on blood agar plate; settings: 50 μg spotted on blood agar, 35 ± 2 °C, 24 h
Outline: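 Peptides (50 μg, from 25 mg/mL DMSO solution) spotted on Columbia CNA blood agar, incubated at 35 ± 2 °C for 24 h. Hemolysis zone diameter measured visually, averaged over triplicates. Triton X-100 positive, DMSO negative control.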

[2] = system: P. aeruginosa VA-182/00 (VIM-2); settings: MHB, 5 × 10^5 CFU/mL, 18 h, 35 °C, triplicate
Protocol: (§1) The minimum inhibitory concentration (MIC) and the minimum bactericidal concentration (MBC) of the compounds were determined in triplicate using Mueller–Hinton broth (MHB). […] Therefore, we decided to dissolve all peptides in DMSO to a final concentration of 25 mg/mL, for consistency. The bacteria inoculum was 5 × 10^5 CFU/mL, as recommended by CLSI (Document M07-A10, 2015). […] Reference-type strains, including representatives of both Gram-positive bacteria (Bacillus subtilis ATCC 6633, Enterococcus faecalis ATCC 29212, Staphylococcus aureus ATCC 25923, the methicillin-resistant Staphylococcus aureus ATCC 43300 (MRSA), Streptococcus pyogenes ATCC 12344) and Gram-negative bacteria (Escherichia coli CCUGT, Klebsiella pneumoniae ATCC 13833, Pseudomonas aeruginosa ATCC 27853, and Acinetobacter baumannii ATCC 17978), were acquired from ATCC or CCUG culture collections. Other antibiotic-resistant clinical isolates were present in our collection at the University Teaching Hospital (Azienda Ospedaliero-Universitaria Senese ‘Santa Maria alle Scotte’) in Siena, Tuscany, Italy. Specifically, MDR carbapenem-hydrolyzing class D β-lactamase-producing Acinetobacter baumannii and metallo-β-lactamase-producing Pseudomonas aeruginosa were used in this study (Table 4).

[3] = system: A. baumannii SI-310 (OXA-24); settings: colistin-resistant isolate; MHB, 5 × 10^5 CFU/mL, 18 h, 35 °C, triplicate
Protocol: as §1

[4] = system: P. aeruginosa VR-143/97 (VIM-1); settings: MHB, 5 × 10^5 CFU/mL, 18 h, 35 °C, triplicate
Protocol: as §1

[5] = system: A. baumannii SI-648 (OXA-23, OXA-51-like); settings: MHB, 5 × 10^5 CFU/mL, 18 h, 35 °C, triplicate
Protocol: as §1

[6] = system: P. aeruginosa 506/99 (VIM-2); settings: MHB, 5 × 10^5 CFU/mL, 18 h, 35 °C, triplicate
Protocol: as §1

[7] = system: S. aureus ATCC 43300 (MRSA); settings: MHB, 5 × 10^5 CFU/mL, 18 h, 35 °C, triplicate
Protocol: as §1

[8] = system: P. aeruginosa 101/1477 (IMP-1); settings: MHB, 5 × 10^5 CFU/mL, 18 h, 35 °C, triplicate
Protocol: as §1

[9] = system: A. baumannii SI-12 (OXA-23); settings: MHB, 5 × 10^5 CFU/mL, 18 h, 35 °C, triplicate
Protocol: as §1

[10] = system: Bacillus subtilis ATCC 6633; settings: MHB, 5 × 10^5 CFU/mL, 18 h, 35 °C, triplicate
Outline: (§2)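 Broth microdilution in Mueller–Hinton broth, run in triplicate, inoculum 5 × 10^5 CFU/mL per CLSI M07-A10; MIC and MBC both determined. Peptides dissolved in DMSO at 25 mg/mL as stock.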

[11] = system: Pseudomonas aeruginosa ATCC 27853; settings: MHB, 5 × 10^5 CFU/mL, 18 h, 35 °C, triplicate
Outline: as §2

[12] = system: Staphylococcus aureus ATCC 25923; settings: MHB, 5 × 10^5 CFU/mL, 18 h, 35 °C, triplicate
Outline: as §2

[13] = system: Enterococcus faecalis ATCC 29212; settings: MHB, 5 × 10^5 CFU/mL, 18 h, 35 °C, triplicate
Outline: as §2

[14] = system: Klebsiella pneumoniae ATCC 13833; settings: MHB, 5 × 10^5 CFU/mL, 18 h, 35 °C, triplicate
Outline: as §2

[15] = system: Acinetobacter baumannii ATCC 17978; settings: for MBC Aba / MIC Aba: MHB, 5 × 10^5 CFU/mL, 18 h, 35 °C, triplicate; for MIC against A. baumannii, in molar units: corresponding to 2 and 8 μg/mL
Outline: as §2

[16] = system: reference Gram-positive and Gram-negative strains; settings: for lowest MIC: lowest value over the eight reference strains
Outline: as §2

[17] = system: Streptococcus pyogenes ATCC 12344; settings: MHB, 5 × 10^5 CFU/mL, 18 h, 35 °C, triplicate
Outline: as §2

[18] = system: Escherichia coli CCUGT; settings: MHB, 5 × 10^5 CFU/mL, 18 h, 35 °C, triplicate
Outline: as §2

| SMILES | Hemolytic activity (in words) [1] | MBC P. aeruginosa VA-182/00 (VIM-2) [2] | MIC P. aeruginosa VA-182/00 (VIM-2) [2] | MBC A. baumannii SI-310 (OXA-24) [3] | MIC A. baumannii SI-310 (OXA-24) [3] | MBC P. aeruginosa VR-143/97 (VIM-1) [4] | MIC P. aeruginosa VR-143/97 (VIM-1) [4] | MBC A. baumannii SI-648 (OXA-23, OXA-51-like) [5] | MIC A. baumannii SI-648 (OXA-23, OXA-51-like) [5] | MBC P. aeruginosa 506/99 (VIM-2) [6] | MIC P. aeruginosa 506/99 (VIM-2) [6] | MBC S. aureus ATCC 43300 (MRSA) [7] | MIC S. aureus ATCC 43300 (MRSA) [7] | MBC P. aeruginosa 101/1477 (IMP-1) [8] | MIC P. aeruginosa 101/1477 (IMP-1) [8] | MBC A. baumannii SI-12 (OXA-23) [9] | MIC A. baumannii SI-12 (OXA-23) [9] | MIC Bsu [10] | MBC Pae [11] | MIC Pae [11] | other results |
| --- | --- | --- | --- | --- | --- | --- | --- | --- | --- | --- | --- | --- | --- | --- | --- | --- | --- | --- | --- | --- | --- |
| CCCCCCCC(=O)NC(C)(C)C(=O)NCC(=O)N[C@@H](CC(C)C)C(=O)NC(C)(C)C(=O)N[C@@H](CCCCN)C(=O)N[C@@H](CCCCN)C(=O)N[C@@H](CC(C)C)C(=O)NC(C)(C)C(=O)NCC(=O)N[C@H](C(=O)N[C@H](CO)CC(C)C)[C@@H](C)CC [Peptide 4, 1-Oct-Aib-Gly-Leu-Aib-Lys-Lys-Leu-Aib-Gly-Ile-Lol] | non-hemolytic | 32 µg/mL (≈ 26.5 µM) | 16 µg/mL (≈ 13.2 µM) | 8 µg/mL (≈ 6.62 µM) | 4 µg/mL (≈ 3.31 µM) | 32 µg/mL (≈ 26.5 µM) | 16 µg/mL (≈ 13.2 µM) | 4 µg/mL (≈ 3.31 µM) | 4 μg/mL and 4/4 μg/mL | 16 µg/mL (≈ 13.2 µM) | 16 µg/mL (≈ 13.2 µM) | 8 µg/mL (≈ 6.62 µM) | 4 µg/mL (≈ 3.31 µM) | 16 µg/mL (≈ 13.2 µM) | 8 µg/mL (≈ 6.62 µM) | 4 µg/mL (≈ 3.31 µM) | 2 µg/mL (≈ 1.65 µM) | 2 µg/mL (≈ 1.65 µM) | 16 µg/mL (≈ 13.2 µM) | 8 µg/mL (≈ 6.62 µM) | MBC Sau [12]: 16 µg/mL (≈ 13.2 µM); MIC Sau [12]: 16 µg/mL (≈ 13.2 µM); MBC Efa [13]: 8 µg/mL and 4 µg/mL; MIC Efa [13]: 2 µg/mL (≈ 1.65 µM); MBC Kpn [14]: 32 µg/mL (≈ 26.5 µM); MIC Kpn [14]: 16 µg/mL (≈ 13.2 µM); MBC Aba [15]: 2 µg/mL (≈ 1.65 µM); MIC Aba [15]: 2 µg/mL (≈ 1.65 µM); MIC against A. baumannii, in molar units [15]: 1.8 to 7.2 µM; lowest MIC [16]: 2 µg/mL; MBC Spy [17]: 2 µg/mL (≈ 1.65 µM); MIC Spy [17]: 2 µg/mL (≈ 1.65 µM); MBC Eco [18]: > 16 µg/mL; MIC Eco [18]: 16 µg/mL (≈ 13.2 µM) |
| CCCCCCCC(=O)NC(C)(C)C(=O)N[C@@H](CCCCN)C(=O)N[C@@H](CC(C)C)C(=O)NC(C)(C)C(=O)N[C@@H](CCCCN)C(=O)N[C@@H](CCCCN)C(=O)N[C@@H](CC(C)C)C(=O)NC(C)(C)C(=O)N[C@@H](CCCCN)C(=O)N[C@H](C(=O)N[C@H](CO)CC(C)C)[C@@H](C)CC [Peptide 7, 1-Oct-Aib-Lys-Leu-Aib-Lys-Lys-Leu-Aib-Lys-Ile-Lol] (Octanoyl-[Aib]KL[Aib]KKL[Aib]KI[Leu(ol)]) | non-hemolytic | 8 µg/mL (≈ 5.92 µM) | 8 µg/mL (≈ 5.92 µM) | 4 µg/mL (≈ 2.96 µM) | 4 μg/mL and 4/4 μg/mL | 8 µg/mL (≈ 5.92 µM) | 8 µg/mL (≈ 5.92 µM) | 4 µg/mL (≈ 2.96 µM) | 2 µg/mL (≈ 1.48 µM) | 8 µg/mL (≈ 5.92 µM) | 8 µg/mL (≈ 5.92 µM) | 8 µg/mL (≈ 5.92 µM) | 4 µg/mL (≈ 2.96 µM) | 8 µg/mL (≈ 5.92 µM) | 8 µg/mL (≈ 5.92 µM) | 4 µg/mL (≈ 2.96 µM) | 2 µg/mL (≈ 1.48 µM) | 2 µg/mL (≈ 1.48 µM) | > 16 µg/mL | 8 µg/mL (≈ 5.92 µM) | MBC Bsu [10]: 16 µg/mL (≈ 11.8 µM); MBC Sau [12]: 32 µg/mL (≈ 23.7 µM); MIC Sau [12]: 16 µg/mL (≈ 11.8 µM); MBC Efa [13]: 8 µg/mL (≈ 5.92 µM); MIC Efa [13]: 4 µg/mL (≈ 2.96 µM); MBC Kpn [14]: 16 µg/mL (≈ 11.8 µM); MIC Kpn [14]: 16 µg/mL (≈ 11.8 µM); MBC Aba [15]: 16 µg/mL (≈ 11.8 µM); MIC Aba [15]: 2 µg/mL (≈ 1.48 µM); MIC against A. baumannii, in molar units [15]: 1.8 to 7.2 µM; lowest MIC [16]: 2 µg/mL; MIC range, all tested bacterial strains ([16]; reference panel): 2 to 16 µg/mL; MBC Spy [17]: 8 µg/mL (≈ 5.92 µM); MIC Spy [17]: 2 µg/mL (≈ 1.48 µM); MBC Eco [18]: 16 µg/mL (≈ 11.8 µM); MIC Eco [18]: 16 µg/mL (≈ 11.8 µM) |
